In patent US20220177841A1, “EX VIVO METHODS FOR PRODUCING A T CELL THERAPEUTIC AND RELATED COMPOSITIONS AND METHODS” (Myst Therapeutics LLC, priority 2019, published 2022):
“Also recorded” adds a separate entry of the source. Peptide text beside a SMILES is read from it. * marks the point of attachment. Cbz = O=C(OCc1ccccc1)*; CH2F = FC*

Assays:
[1] = tested on: expanded human T cells from three healthy donors; experiment: T cell adjuvant high throughput screen, total viable CD3+ cell count; type: cell-based; conditions: 6 days; for total viable CD3+ cell count compared with DMSO treatment control: 10 μg/mL antibodies, 25 μM Z-VAD-FMK, irrespective of activation status (with or without OKT3)
Description: Cells were expanded from PBMC derived from Ficoll gradient separation from three healthy donor's apheresis material. […] Cells were next seeded into gas permeable 100M culture vessels and expanded for 7-14 days to achieve a large bank of T cells, and cryopreserved. […] Half of wells were additionally supplemented with 50 ng/mL OKT3, a human anti-CD3 monoclonal antibody. In total, 15 test adjuvant agents were tested for their impact on cell viability in the presence and absence of anti-CD3 activation (see Table E3). Cells were cultured for 6 days total, including a 50% medium exchange on culture day 3, and monitored for total viable CD3+ cell count.
Total viable CD3+ cell count for cells grown in the absence and presence of OKT3 stimulation are shown in FIGS. 27A-C and FIGS. 28A-C, respectively. The results shown are for the following concentrations of adjuvant: 10 μg/mL for tested antibodies (Tavolixizumab, Oxelumab, Ipilimumab, Tocilizumab, Urelumab, Pembrolizumab, Varlilumab, anti-GITR MK-1248, anto-human FasL); 25 μM for Z-VAD-FMK pan-caspase inhibitor; 250 nM for HSP inhibitor NVP-HSP990; and 1000 IU/mL for cytokine (IL-7, IL-15 or IL-21).

[2] = tested on: PBMC from three healthy donors; experiment: T cell expansion with Fas ligand or caspase inhibition, anti-CD3 stimulation; type: cell-based, human; conditions: OKT3 activation, caspase inhibitor 2 μM present continuously, replenished each media exchange
Description: (§1) Apoptotic inhibitors directed against Fas- and caspase-mediated pathways were assessed to determine effects on tumor reactive T cells during manufacturing. The studies were carried out in healthy donors, and thus, stimulation of the T cells were carried out with anti-CD3 (OKT3) or anti-CD3/anti-CD28 stimulation in order to mimic conditions present in the tumor microenvironment (TME). Constant activation signals present in the tumor microenvironment, as can be stimulated by anti-CD3 or anti-CD3/anti-CD28 activation can be detrimental to T cell growth. Cellular viability and projected cell numbers were used to compare the impact of modulation of apoptotic pathways in both a transient and a continuous activation assay, the latter of which more closely recapitulates the tumor microenvironment.
Immune Cell Serum Replacement (ThermoFisher) at 5%, and a final concentration of 2.0 mM of a L-alanyl-L-glutamine dipeptide form of glutamine (GlutaMAX Supplement; Thermofisher). Cells were then seeded into a 24-well gas permeable cell culture plate at a density of 2.14×10^5 cells/mL (7.5×10^5 cells/cm^2). […]
Cultures were maintained for at least 13 days with a 50% media exchange every other day beginning on culture day 2. Cell counts and viability were monitored every other day. […]

[3] = tested on: PBMC from two healthy donors; experiment: T cell expansion with Fas ligand or caspase inhibition, anti-CD3/anti-CD28 stimulation (transient or continuous activation); type: cell-based, human; conditions: 2 μM
Description: as §1
Cells were then seeded into a 24-well gas permeable cell culture plate at a density of 1.5×10^5 cells/mL (5.0×10^5cells/cm^2).
Culture wells were assigned to one of two treatment groups, transient or continuous activation. For transient activation, anti-CD3/anti-CD28 paramagnetic beads (Dyanbeads™) were added to the culture media at a ratio of 1 bead per cell starting on culture day 0, and then were removed during media exchange on day 2. […]
Cell counts and viability were monitored every other day. […]

[4] = tested on: CRC tumor fragment and SCS cultures; experiment: Caspase inhibition in tumor processing, fragment or SCS cultures; type: cell-based, human
Description: Half of cultures contained media additionally supplemented with 2 μM of pan-caspase inhibitor Z-VAD-FMK which was replenished at each media exchange. Cultures were incubated at about 37° C. for a minimum of 18 days with a 50% medium exchange occurring every 2-3 days following culture day 5. Cell counts were performed on day 5 and at each medium exchange using the NC-200 Automated Cell Counter (ChemoMetec).

[5] = tested on: PBMC from two healthy donors; experiment: Checkpoint modulators and costimulatory agonist antibodies on T cell phenotype, flow cytometry; type: cell-based, human; conditions: 0.5, 1, 10, or 20 μg/mL; 50 ng/ml OKT3; 48 hours
Description: Cells were then seeded into a 24-well gas permeable cell culture plate at a density of 5.0×10^5 cells/cm^2. Cells were activated for 48 hours using 50 ng/ml OKT3, a human anti-CD3 monoclonal antibody, and were additionally treated with agents as described below. Following 48 hours in culture, cells were analyzed for phenotype.
Cells were divided into 6 treatment groups, as follows: Ipilimumab (anti-CTLA4), Pembrolizumab (anti-PD1), Tavolixizumab (anti-TNFRSF4), Urelumab (anti-CD137), and Varlilumab (anti-CD27), as well as a no added agent control. For all test groups, cells in each treatment group were cultured in the presence of the monoclonal antibodies at 0.5, 1, 10, or 20 μg/mL.
None of the tested antibodies appeared to affect the memory differentiation state of the T cells. T cell phenotype was assessed for CD4+and CD8+cells independently via flow cytometry for markers of activation OX40, 41BB, CD107a, and PD1. Results are shown in FIG. 38 (CD3+), FIG. 39 (CD4+) and FIG. 40 (CD8+). Higher concentrations of Varlilumab, an agonist anti-CD27 antibody, promoted 41BB and CD107a expression on CD3+ T cells (FIG. 38B and 38C), CD4+ T cells (FIG. 39B and 39C) and CD8+ T cells (FIGS. 40B and 40C). Urelumab, an agonist CD137 receptor antibody, promoted 41BB expression on CD4 T cells (FIG. 39B) and CD8+ T cells (FIG. 40B). Pembrolizumab, an anti-PD-1 antagonist, decreased PD1 expression on CD4 T cells (FIG. 39D)

[6] = tested on: cells processed from melanoma tumor fragments; experiment: Anti-CD3 stimulation on expansion of tumor-derived cells; type: cell-based, human
Description: Cells processed from melanoma tumor fragments as described in Examples 1 and 2, were cultured in the presence or absence of 50 ng/mL OKT3, a human anti-CD3 monoclonal antibody. Cell cultures were carried out to between 14 and 31 days in either a conventional 6-well plate or a gas permeable culture plate with RPMI or OpTmizer media. […] About 50% of cellular media was exchanged every other day beginning on the 5th day of culture as described previously. Cells were then counted using the NC-200 Automated Cell Counter (Chemometec).

[7] = tested on: T-cells from three healthy donors; experiment: Post-stimulation CD4+ and CD8+ activation markers, flow cytometry; type: cell-based, human; conditions: 50 ng/mL OKT3, compared to culture in the absence of OKT3
Description: Specific markers of activation on the CD4+ and CD8+ cell populations were measured using flow cytometry over a time course of 3-48 hours. Specifically, the following markers were assessed: CD38 and CD39 (FIG. 12A and FIG. 13A), CD134 and CD137 (FIG. 12B and FIG. 13B), and CD69 and CD90 (FIG. 12C and FIG. 13C).

[8] = presence versus absence of 50 ng/mL OKT3, 14 to 31 days

COC(=O)C[C@H](NC(=O)[C@H](C)NC(=O)[C@@H](NC(=O)OCc1ccccc1)C(C)C)C(=O)CF [Z-VAD-FMK, carbobenzoxy-valyl-alanyl-aspartyl-[O-methyl]-fluoromethylketone] (Cbz-Val-Ala-Asp(OMe)-CH2F)
total viable CD3+ cell count compared with DMSO treatment control [1]: consistently higher viable cell counts than the DMSO treatment control | cell growth (total cell number) [2]: greatest cell growth across donors | cell growth (total cell number) ([2]; listed as caspase inhibition): superior growth | total viable cell number and viability versus other conditions ([3]; caspase inhibitor continuously): outperformed the other conditions | total viable cell number and viability versus other conditions ([3]; caspase inhibitor transiently (day 0 only)): outperformed the other conditions | outgrowth of T cells ([4]; SCS conditions): outgrowth of T cells was not observed | cell viability ([4]; SCS culture, 2 μM replenished at each media exchange): similarly high | cell viability ([4]; tumor fragment-derived culture, 2 μM replenished at each media exchange): high | outgrowth of cells (fold expansion, total viable cells) ([4]; tumor fragment-derived culture, 2 μM replenished at each media exchange, minimum 18 days): outgrowth of cells was superior

Urelumab: agonist CD137 receptor antibody
41BB expression on CD4+ T cells [5]: promoted | 41BB expression on CD8+ T cells [5]: promoted

Pembrolizumab: anti-PD1 antibody
total viable CD3+ cell count compared with DMSO treatment control [1]: consistently higher viable cell counts than the DMSO treatment control | PD1 expression on CD4 T cells [5]: decreased

IL-15: recombinant cytokine tested as T cell adjuvant
dose response, cell number ([1]; 62.5 IU/ml-1000 IU/ml): cell number increased with increasing concentration

OKT3: human anti-CD3 monoclonal antibody
T cell expansion ([6]; 50 ng/mL OKT3, 14 to 31 days, 300 or 6000 IU/mL IL-2): supported T cell expansion | fold expansion ([6]; donor 6, all conditions, presence or absence of anti-CD3 stimulation): 2-4 fold | fold expansion [6, 8]: largely similar; also recorded: did not substantially impact | total cell number [6, 8]: largely similar; also recorded: did not substantially impact | upregulation of activation markers (CD38, CD39, CD134, CD137, CD69, CD90) on CD8+ T cells ([7]; 48 hours following stimulation): all assessed markers were upregulated to some extent | upregulation of activation markers (CD38, CD39, CD134, CD137, CD69, CD90) on CD4+ T cells ([7]; first 48 hours following stimulation): all assessed markers were upregulated to some extent

Varlilumab: agonist anti-CD27 antibody
41BB expression on CD3+ T cells [5]: promoted | 41BB expression on CD4+ T cells [5]: promoted | 41BB expression on CD8+ T cells [5]: promoted | CD107a expression on CD3+ T cells [5]: promoted | CD107a expression on CD4+ T cells [5]: promoted | CD107a expression on CD8+ T cells [5]: promoted

Oxelumab: anti-OX40L antibody
total viable CD3+ cell count compared with DMSO treatment control [1]: consistently higher viable cell counts than the DMSO treatment control
